# Data as given in DBAASP.
# Where “and” joins values, the source holds several entries; their conditions need not be identical. Equal entries are not always repeated.
# Legend:
# Assay in all cases: ≥ marks a high value that may be exact or a test limit, other limits are often not marked, values filed in µg/mL are converted to µM
# [1] = system: Escherichia coli ATCC 25922
# [2] = system: Staphylococcus aureus ATCC 25923
# [3] = system: Pseudomonas aeruginosa ATCC 27853
SMILES,MIC [1],MIC [2],MIC [3]
CC(C)C[C@H](NC(=O)[C@H](CC(C)C)NC(=O)[C@H](CCCCN)NC(=O)[C@H](CCCCN)NC(=O)[C@H](C)NC(=O)[C@H](CC(C)C)NC(=O)[C@H](CCCCN)NC(=O)[C@H](CC(C)C)NC(=O)[C@@H](N)Cc1ccccc1)C(N)=O [FLKLAKKLL],,,59.6 µM and 119 µM
CC[C@H](C)[C@H](NC(=O)[C@@H](NC(=O)[C@@H](NC(=O)CNC(=O)[C@H](C)NC(=O)[C@@H](NC(=O)[C@H](CC(N)=O)NC(=O)[C@@H](NC(=O)[C@H](C)NC(=O)[C@H](CC(C)C)NC(=O)[C@H](CC(N)=O)NC(=O)[C@H](CCCCN)NC(=O)[C@@H](NC(=O)[C@@H](NC(=O)[C@H](CO)NC(=O)[C@H](CC(C)C)NC(=O)[C@H](Cc1ccccc1)NC(=O)CN)[C@@H](C)O)C(C)C)[C@@H](C)O)C(C)C)[C@@H](C)O)C(C)C)C(=O)N[C@@H](CC(=O)O)C(=O)N[C@H](C(=O)N[C@@H](CC(C)C)C(=O)N[C@@H](CCCCN)C(=O)N[C@H]1CSSC[C@@H](C(=O)N[C@@H](CCCN=C(N)N)C(=O)N[C@@H](CO)C(=O)O)NC(=O)CNC(=O)CNC(=O)[C@H]([C@@H](C)O)NC(=O)[C@H](C(C)C)NC(=O)[C@H](CCCCN)NC1=O)[C@@H](C)O [GFLSTVKNLATNVAGTVIDTLKCKVTGGCRS],120 µM,,
CC[C@H](C)[C@H](NC(=O)[C@H](CCCN=C(N)N)NC(=O)[C@H](CCCCN)NC(=O)[C@H](CC(C)C)NC(=O)[C@H](CC(C)C)NC(=O)CN)C(=O)N[C@@H](CCCCN)C(=O)N[C@@H](C)C(=O)N[C@@H](CC(C)C)C(=O)N[C@@H](CC(C)C)C(N)=O [GLLKRIKALL],14.2 µM,7.11 µM,
CC[C@H](C)[C@H](NC(=O)CNC(=O)[C@H](CCC(N)=O)NC(=O)[C@H](C)NC(=O)[C@@H](NC(=O)[C@H](CCCCN)NC(=O)[C@H](CCCCN)NC(=O)[C@H](CC(C)C)NC(=O)[C@H](C)NC(=O)[C@H](CC(N)=O)NC(=O)[C@H](CC(C)C)NC(=O)CN)C(C)C)C(=O)N[C@@H](Cc1cnc[nH]1)C(=O)N[C@@H](CCC(=O)O)C(=O)N[C@@H](C)C(=O)N[C@H](C(=O)N[C@@H](CCCCN)C(=O)N[C@@H](CC(C)C)C(=O)N[C@H](C(=O)N[C@@H](CC(N)=O)C(=O)N[C@@H](CC(N)=O)C(=O)N[C@@H](Cc1cnc[nH]1)C(=O)N[C@H](C(=O)N[C@@H](CCC(N)=O)C(N)=O)C(C)C)[C@@H](C)CC)[C@@H](C)CC [GLNALKKVAQGIHEAIKLINNHVQ],11.3 µM,,
CC[C@H](C)[C@H](NC(=O)[C@H](CCCN=C(N)N)NC(=O)[C@H](CCCCN)NC(=O)[C@H](CCSC)NC(=O)[C@H](CCSC)NC(=O)CN)C(=O)N[C@@H](CCCCN)C(=O)N[C@H](C(=O)N[C@@H](CCSC)C(=O)N[C@@H](CCSC)C(N)=O)[C@@H](C)O [GMMKRIKTMM],> 200 µM,,
CC(C)C[C@H](NC(=O)[C@H](CCCN=C(N)N)NC(=O)[C@H](CCCN=C(N)N)NC(=O)[C@H](CC(C)C)NC(=O)[C@H](Cc1c[nH]c2ccccc12)NC(=O)[C@H](CCCN=C(N)N)NC(=O)[C@H](Cc1c[nH]c2ccccc12)NC(=O)[C@@H](NC(=O)[C@H](CCCCN)NC(=O)[C@H](CCCN=C(N)N)NC(=O)[C@@H](N)CC(C)C)C(C)C)C(N)=O [LRKVWRWLRRL],,10 µM,
CC(C)C[C@H](NC(=O)[C@H](C)NC(=O)[C@@H](N)CO)C(=O)N[C@H](C(=O)NCC(=O)N[C@H]1CSSC[C@@H](C(=O)N[C@@H](Cc2ccccc2)C(=O)NCC(=O)N[C@@H](CCCN=C(N)N)C(=O)O)NC(=O)[C@@H]2CCCN2C(=O)[C@H](CCCCN)NC(=O)[C@@H]2CCCN2C(=O)[C@@H]2CCCN2C(=O)[C@H](Cc2ccc(O)cc2)NC(=O)[C@H](CO)NC(=O)[C@H](CCCCN)NC(=O)[C@H]([C@@H](C)O)NC(=O)CNC1=O)C(C)C [SALVGCGTKSYPPKPCFGR],,12.7 µM,

# The next lines start with the values.
MIC [1],MIC [2],MIC [3],SMILES
> 18 µM,> 18 µM,,CC[C@H](C)[C@H](NC(=O)[C@H](CCCN=C(N)N)NC(=O)[C@H](CCCCN)NC(=O)[C@H](CC(C)C)NC(=O)[C@H](CC(C)C)NC(=O)[C@H](C)N)C(=O)N[C@@H](CCCCN)C(=O)N[C@H](C(=O)N[C@@H](CC(C)C)C(=O)N[C@@H](CC(C)C)C(N)=O)[C@@H](C)O [ALLKRIKTLL]
69 µM,276 µM,,CC[C@H](C)[C@H](NC(=O)CNC(=O)[C@@H](NC(=O)[C@H](CCCCN)NC(=O)[C@@H](NC(=O)[C@H](CCCCN)NC(=O)CN)C(C)C)[C@@H](C)CC)C(=O)N[C@@H](CC(N)=O)C(=O)NCC(=O)N[C@@H](Cc1ccccc1)C(=O)NCC(=O)N[C@@H](CCCN=C(N)N)C(=O)N[C@H](C(=O)NCC(=O)N[C@@H](CCCN=C(N)N)C(=O)N[C@@H](CC(C)C)C(=O)N[C@H](C(=O)N[C@@H](C)C(=O)O)C(C)C)[C@@H](C)CC [GKVKIGINGFGRIGRLVA]
4.42 µM,,,CC[C@H](C)[C@H](NC(=O)[C@H](C)NC(=O)CNC(=O)[C@H](C)NC(=O)[C@H](CCCCN)NC(=O)[C@H](CO)NC(=O)[C@H](C)NC(=O)[C@H](CCSC)NC(=O)CN)C(=O)N[C@@H](C)C(=O)NCC(=O)N[C@@H](CCCCN)C(=O)N[C@H](C(=O)N[C@@H](C)C(=O)N[C@@H](CCCCN)C(=O)N[C@H](C(=O)N[C@@H](C)C(=O)N[C@@H](Cc1c[nH]c2ccccc12)C(=O)N[C@@H](CCCCN)C(=O)N[C@@H](C)C(=O)N[C@@H](CC(C)C)C(=O)NCC(=O)NCC(=O)N[C@@H](CS)C(N)=O)C(C)C)[C@@H](C)CC [GMASKAGAIAGKIAKVAWKALGGC]
> 200 µM,> 200 µM,,CC[C@H](C)[C@H](NC(=O)[C@H](C)NC(=O)[C@@H](NC(=O)[C@H](C)NC(=O)[C@H](CCCCN)NC(=O)[C@H](C)NC(=O)[C@H](CC(C)C)NC(=O)[C@H](CCCCN)NC(=O)CNC(=O)[C@H](CC(C)C)NC(=O)[C@@H](NC(=O)[C@H](CO)NC(=O)CNC(=O)[C@H](C)NC(=O)[C@@H](NC(=O)[C@H](CO)NC(=O)[C@H](C)NC(=O)[C@H](CCSC)NC(=O)CN)[C@@H](C)O)C(C)C)C(C)C)C(=O)NCC(=O)N[C@@H](C)C(=O)N[C@@H](CC(C)C)C(N)=O [GMASTAGSVLGKLAKAVAIGAL]
5.76 µM,,,CC[C@H](C)[C@H](NC(=O)[C@H](Cc1c[nH]c2ccccc12)NC(=O)[C@H](Cc1c[nH]c2ccccc12)NC(=O)[C@H](Cc1c[nH]c2ccccc12)NC(=O)[C@H](Cc1c[nH]c2ccccc12)NC(=O)[C@H](CCCCN)NC(=O)[C@H](CCCCN)NC(=O)[C@H](CCCCN)NC(=O)[C@@H](N)CCCCN)C(N)=O [KKKKWWWWI]
,,4 µM,CC[C@H](C)[C@H](NC(=O)[C@H](CC(C)C)NC(=O)[C@H](C)NC(=O)[C@@H]1CCCN1C(=O)[C@H](CC(C)C)NC(=O)CNC(=O)[C@@H](NC(=O)[C@@H](NC(=O)[C@H](CC(C)C)NC(=O)[C@@H](NC(=O)[C@H](CCCCN)NC(=O)[C@H](CCCCN)NC(=O)[C@H](C)NC(=O)[C@H](C)NC(=O)[C@H](CO)NC(=O)[C@@H](NC(=O)[C@H](CC(C)C)NC(=O)[C@H](CCCCN)NC(=O)[C@H](CCCCN)NC(=O)[C@@H](NC(=O)[C@H](Cc1ccccc1)NC(=O)[C@H](CCCCN)NC(=O)[C@H](CCCCN)NC(=O)[C@H](Cc1c[nH]c2ccccc12)NC(=O)[C@@H](N)CCCCN)[C@@H](C)CC)[C@@H](C)O)C(C)C)[C@@H](C)O)[C@@H](C)O)C(=O)N[C@@H](CO)C(=O)O [KWKKFIKKLTSAAKKVLTTGLPALIS]
,,32 µM,CC(C)C[C@H](NC(=O)[C@H](Cc1c[nH]c2ccccc12)NC(=O)[C@H](C)NC(=O)CNC(=O)[C@H](Cc1c[nH]c2ccccc12)NC(=O)[C@H](CC(N)=O)NC(=O)[C@@H](N)CC(C)C)C(=O)N[C@@H](CCCCN)C(=O)N[C@@H](Cc1cnc[nH]1)C(=O)N[C@@H](Cc1c[nH]c2ccccc12)C(=O)N[C@@H](Cc1c[nH]c2ccccc12)C(=O)N[C@@H](CCCCN)C(=O)O [LNWGAWLKHWWK]
4.48 µM,,,CC[C@H](C)[C@@H]1NC(=O)[C@H](CCCCN)NC(=O)[C@@H]2CCCN2C(=O)[C@H](Cc2cnc[nH]2)NC(=O)CNC(=O)[C@@H]2CSSC[C@@H]3NC(=O)[C@H](CO)NC(=O)CNC(=O)CNC(=O)[C@H](Cc4ccc(O)cc4)NC(=O)[C@H](CO)NC(=O)[C@H](CCSC)NC(=O)[C@@H](NC(=O)[C@@H](NC(=O)[C@@H](NC(=O)[C@@H]4CCCN4C(=O)[C@H](CO)NC(=O)[C@H](CC(N)=O)NC(=O)[C@@H](NC(=O)[C@H](CC(C)C)NC(=O)[C@@H](N)CCC(N)=O)[C@@H](C)CC)C(C)C)[C@@H](C)O)CSSC[C@H](NC(=O)[C@H](CCCN=C(N)N)NC1=O)C(=O)N[C@H](C(=O)N[C@@H](CCCN=C(N)N)C(=O)N[C@@H](CCCN=C(N)N)C(=O)N[C@@H](CCCCN)C(=O)O)CSSC[C@H](NC(=O)[C@H](CO)NC(=O)[C@H](CCCN=C(N)N)NC(=O)[C@H](CCC(N)=O)NC3=O)C(=O)N[C@@H](CC(N)=O)C(=O)NCC(=O)NCC(=O)N[C@@H](Cc1ccccc1)C(=O)N[C@@H](CCCN=C(N)N)C(=O)N[C@@H](CC(C)C)C(=O)NCC(=O)NCC(=O)N[C@@H](Cc1cnc[nH]1)C(=O)N2 [QLINSPVTCMSYGGSCQRSCNGGFRLGGHCGHPKIRCCRRK]
> 100 µM,,> 100 µM,CC[C@H](C)[C@H](NC(=O)[C@H](Cc1ccc(O)cc1)NC(=O)[C@H](CCC(N)=O)NC(=O)[C@H](CC(C)C)NC(=O)[C@H](C)NC(=O)[C@H](CCCCN)NC(=O)[C@H](CCCCN)NC(=O)[C@H](CCSC)NC(=O)[C@H](CCCCN)NC(=O)[C@H](CCCCN)NC(=O)[C@H](CCCCN)NC(=O)[C@H](CCCN=C(N)N)NC(=O)[C@H](CCCN=C(N)N)NC(=O)[C@H](Cc1ccc(O)cc1)NC(=O)[C@@H](N)CCCN=C(N)N)C(=O)N[C@@H](CCCCN)C(=O)N[C@@H](CC(C)C)C(N)=O [RYRRKKKMKKALQYIKL]
16 µM,,,CC(C)C[C@H](NC(=O)[C@H](Cc1ccccc1)NC(=O)[C@@H]1CCCN1C(=O)[C@H](Cc1ccc(O)cc1)NC(=O)[C@H](Cc1ccc(O)cc1)NC(=O)[C@H](Cc1c[nH]c2ccccc12)NC(=O)[C@@H]1CCCN1C(=O)[C@H](Cc1ccccc1)NC(=O)[C@H](CCCN=C(N)N)NC(=O)[C@H](CCCN=C(N)N)NC(=O)[C@@H](N)C(C)C)C(=O)N[C@@H](CCCN=C(N)N)C(=O)N[C@@H](CCCN=C(N)N)C(N)=O [VRRFPWYYPFLRR]
